Laboratory results as given in patent US20240335544A1, “M6PR CELL SURFACE RECEPTOR BINDING COMPOUNDS AND CONJUGATES” (LYCIA THERAPEUTICS, INC., priority 2021, published 2024).
Entries after “also recorded” stand apart in the source; their conditions may differ. Read-outs that look alike come from different tables or passages of the source.

Tests used:
CI-M6PR = CI-M6PR (Homo sapiens, UniProt P11717); assay: Human CI-M6PR binding assay (ELISA); parameters: purchased R&D 6418-GR-050
Method: Nunc black solid bottom MaxiSorp plates were allowed to incubate overnight at 4° C. coated with 1 μg/mL of recombinant human CI-M6PR protein (R&D, 6418-GR-050) in 50 μL PBS. The next day, coating was decanted and plates were washed 3× with PBS. Wells were blocked with 350 μL of 3% BSA-PBS for 1 hour at room temperature. […] 50 μL of diluted conjugates were added to the plate and allowed to incubate at room temperature for 2 hours. After incubation, solutions in plate were decanted and washed with 350 μL of 0.05% PBS-Tween20 three times, drying the plate each wash on a clean paper towel. 50 μL of peroxidase AffiniPure Mouse Anti-Human IgG (Jackson Immuno, 209-035-088) diluted in 3% BSA-PBS to […] was added to the plate and allowed to incubate for 1 hour at room temperature in the dark. After incubation, solutions in plate were decanted and washed with 350 μL of 0.05% PBS-Tween20 3 times, drying the plate each wash on a clean paper towel. […] 50 μL of QuantaBlu solution was added to wells and allowed to incubate for 5-10 minutes at room temperature. After incubation, plates were read on a Perkin Elmer EnVision using photometric 340 and Umbelliferone 460 filter sets for excitation and emission, respectively. Data analysis and non-linear curve-fitting was performed using GraphPad Prism.

Jurkat cells = assay: Uptake of IgE-Alexa488 target by omalizumab conjugates in Jurkat cells; assay type: cell-based; conditions: for relative cellular uptake activity of IgE-Alexa488, omalizumab conjugates of Table 15A / relative cellular uptake activity of IgE-Alexa488, omalizumab conjugates of Table 15B: 1 hour; for relative cellular uptake activity of IgE-Alexa488, omalizumab conjugates of Table 15A: FIGS. 15-17; for relative cellular uptake activity of IgE-Alexa488, omalizumab conjugates of Table 15B: FIGS. 18-21
Method: The omalizumab conjugates of Example 142 were bound to IgE-Alexa488 (prepared according to Example 144), as follows: equal molar ratios of omalizumab (anti-IgE) conjugate and IgE-Alexa488 were added in tissue culture media for 30 minutes at room temperature. The resulting anti-IgE conjugate:IgE antibody-Alexa488 compositions were added to Jurkat cells (100 k cells/50 ul per well, n=2), and Alexa488 fluorescence levels in the cells were measured at 1 hour by flow cytometry. As the fluorescently labelled target (IgE antibody) accumulates in cells, the fluorescence presents a way to measure total intracellular uptake by cells over time.

[1] = target: T1, M6PR (Domains I-9, R&D Systems) (Homo sapiens, UniProt P11717); assay: General M6PR binding assay (fluorescence polarization); conditions: Table 16F, unconjugated compounds, 100 nM M6PR, 1 nM probe, 2 hr incubation
T1 construct: with 100 nM M6PR (Domains I-9, R&D Systems) and 1 nM probe; purchased R&D Systems
Method: M6PR binding was measured in black 96-well plates using a fluorescence polarization assay. A fluorescent probe consisting of a reference M6Pn ligand linked to Cy5 was synthesized. Test compounds were resuspended in DMSO and 3-fold serial dilutions were made at 100× final concentrations. Binding reactions were conducted in 100 μl final volume in 20 mM HEPES (pH 7.5) 100 mM NaCl 0.015% Tween-20 1% DMSO with 100 nM M6PR (Domains I-9, R&D Systems) and 1 nM probe. Fluorescence polarization was measured using Xex=620 nm, λem=688 nm on an Envision plate reader (Perkin Elmer) after 2 hr incubation time. Dose responses were conducted in duplicate and normalized to the response with DMSO (high) and 1 μM reference compound (low) on each plate. IC50 values were determined by fitting to 4-parameter curves in GraphPad Prism.

[2] = Table 16D, conjugate, m average loading DAR 2, read-out: EC50 in M6PR binding assay for conjugates of compounds of varying multivalency

T1 sequence (P11717 41-1365 limits assumed): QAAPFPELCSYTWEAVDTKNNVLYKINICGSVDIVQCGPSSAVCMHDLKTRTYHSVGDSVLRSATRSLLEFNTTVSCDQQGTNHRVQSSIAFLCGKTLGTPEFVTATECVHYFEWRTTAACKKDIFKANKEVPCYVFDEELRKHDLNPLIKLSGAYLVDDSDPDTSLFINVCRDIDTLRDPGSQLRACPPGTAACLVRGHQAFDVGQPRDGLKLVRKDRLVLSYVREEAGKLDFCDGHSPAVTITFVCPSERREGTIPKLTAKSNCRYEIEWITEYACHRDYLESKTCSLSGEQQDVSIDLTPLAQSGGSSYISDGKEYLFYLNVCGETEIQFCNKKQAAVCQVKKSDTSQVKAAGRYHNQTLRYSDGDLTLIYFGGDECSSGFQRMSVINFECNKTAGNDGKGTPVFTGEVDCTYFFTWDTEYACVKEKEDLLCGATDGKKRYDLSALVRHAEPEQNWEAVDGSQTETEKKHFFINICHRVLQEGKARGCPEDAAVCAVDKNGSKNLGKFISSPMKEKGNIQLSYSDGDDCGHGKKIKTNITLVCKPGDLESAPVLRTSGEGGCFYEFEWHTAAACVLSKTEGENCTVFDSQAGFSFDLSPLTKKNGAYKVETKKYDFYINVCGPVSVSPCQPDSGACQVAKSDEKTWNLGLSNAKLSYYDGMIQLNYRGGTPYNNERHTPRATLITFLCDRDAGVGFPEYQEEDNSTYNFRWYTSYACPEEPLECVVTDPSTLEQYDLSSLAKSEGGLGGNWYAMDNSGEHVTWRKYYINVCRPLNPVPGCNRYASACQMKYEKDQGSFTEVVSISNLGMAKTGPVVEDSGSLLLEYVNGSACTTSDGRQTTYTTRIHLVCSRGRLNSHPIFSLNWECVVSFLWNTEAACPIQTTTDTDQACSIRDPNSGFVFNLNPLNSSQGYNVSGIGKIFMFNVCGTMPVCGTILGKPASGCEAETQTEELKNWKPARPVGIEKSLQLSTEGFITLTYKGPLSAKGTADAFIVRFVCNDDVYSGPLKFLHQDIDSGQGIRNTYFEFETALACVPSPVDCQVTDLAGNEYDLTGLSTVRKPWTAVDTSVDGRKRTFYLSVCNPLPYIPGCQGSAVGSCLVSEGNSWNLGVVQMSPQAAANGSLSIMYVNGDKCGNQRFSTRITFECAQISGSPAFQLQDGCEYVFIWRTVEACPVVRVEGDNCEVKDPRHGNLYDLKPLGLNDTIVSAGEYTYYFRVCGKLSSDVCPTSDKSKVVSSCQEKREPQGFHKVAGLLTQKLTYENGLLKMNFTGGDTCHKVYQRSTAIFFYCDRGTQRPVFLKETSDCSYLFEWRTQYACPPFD
Chain of CI-M6PR (P11717 41-1365 limits assumed): as above

Cc1cc(NC(=O)NCCCCc2cn(CCOCCOCCOCCOCCC(=O)Oc3c(F)c(F)c(F)c(F)c3F)nn2)ccc1O[C@H]1O[C@H](CCP(=O)(O)O)[C@@H](O)[C@H](O)[C@@H]1O [545 (I-87)]
EC50 (CI-M6PR; Table 16C, cetuximab (anti-EGFR) conjugate, average loading DAR 9.2, read-out: EC50 in M6PR binding assay): 0.3 nM

O=C(CCOCCOCCOCCOCCn1cc(CCCCNC(=S)Nc2ccc(O[C@H]3O[C@H](CCS(=O)(=O)O)[C@@H](O)[C@H](O)[C@@H]3O)cc2)nn1)Oc1c(F)c(F)c(F)c(F)c1F [556 (1-104)]
relative cellular uptake activity of IgE-Alexa488, omalizumab conjugates of Table 15A (Jurkat cells): low activity

O=C(CCOCCOCCOCCN(CCOCCOCCOCCn1cc(CCCCNC(=S)Nc2ccc(O[C@H]3O[C@H](CCP(=O)(O)O)[C@@H](O)[C@H](O)[C@@H]3O)cc2)nn1)CCOCCOCCOCCn1cc(CCCCNC(=S)Nc2ccc(O[C@H]3O[C@H](CCP(=O)(O)O)[C@@H](O)[C@H](O)[C@@H]3O)cc2)nn1)Oc1c(F)c(F)c(F)c(F)c1F [704 (I-40)]
EC50 (CI-M6PR; [2]): 0.66 nM
EC50 (CI-M6PR; Table 16D, conjugate, m average loading DAR 7, read-out: EC50 in M6PR binding assay for conjugates of compounds of varying multivalency): 0.2 nM

O=C(CCCn1cc(CCCCNC(=S)Nc2ccc(O[C@H]3O[C@H](CCP(=O)(O)O)[C@@H](O)[C@H](O)[C@@H]3O)cc2)nn1)N[C@@H](CCCCn1cc(CCCCNC(=S)Nc2ccc(O[C@H]3O[C@H](CCP(=O)(O)O)[C@@H](O)[C@H](O)[C@@H]3O)cc2)nn1)C(=O)N[C@@H](CCCCn1cc(CCCCNC(=S)Nc2ccc(O[C@H]3O[C@H](CCP(=O)(O)O)[C@@H](O)[C@H](O)[C@@H]3O)cc2)nn1)C(=O)N[C@@H](CCCCn1cc(CCCCNC(=S)Nc2ccc(O[C@H]3O[C@H](CCP(=O)(O)O)[C@@H](O)[C@H](O)[C@@H]3O)cc2)nn1)C(=O)NCCOCCOCCOCCOCCC(=O)Oc1c(F)c(F)c(F)c(F)c1F [763 (I-52)]
EC50 (CI-M6PR; [2]): 0.3 nM

C#CCCCCNC(=O)Nc1ccc(O[C@H]2O[C@H](CCP(=O)(O)O)[C@@H](O)[C@H](O)[C@@H]2O)cc1 [Compound 38C]
IC50 [1]: 100 to 500 nM

O=C(NCCCCc1cn(CCOCCOCCOCCOCCC(=O)Oc2c(F)c(F)c(F)c(F)c2F)nn1)Nc1ccc(S[C@H]2O[C@H](CCP(=O)(O)O)[C@@H](O)[C@H](O)[C@@H]2O)cc1 [Compound 552]
relative cellular uptake activity of IgE-Alexa488, omalizumab conjugates of Table 15B (Jurkat cells): comparable activity to an 0-glycoside (520 (I-7) with m=8); also recorded: more activity when at m=6 loading versus m=4 loading
relative cellular uptake activity of IgE-Alexa488, omalizumab conjugates of Table 19 (Jurkat cells; FIG. 23, entire dose response range): comparable by less activity that the conjugate of α-O-glycoside (529)

O=C(NCCCCc1cn(CCOCCOCCOCCOCCC(=O)Oc2c(F)c(F)cc(F)c2F)nn1)Nc1ccc(O[C@H]2O[C@H](CCP(=O)(O)O)[C@@H](O)[C@H](O)[C@@H]2O)cc1 [Compound 558]
relative cellular uptake activity of IgE-Alexa488, omalizumab conjugates of Table 15A (Jurkat cells): active in this assay, although less active in comparison to the corresponding analog containing a phosphonate hydrophilic head group (529 (I-38))

O=C(CCOCCOCCOCCOCCn1cc(CCCCNC(=S)Nc2ccc(O[C@H]3O[C@H](CC(C(=O)O)C(=O)O)[C@@H](O)[C@H](O)[C@@H]3O)cc2)nn1)Oc1c(F)c(F)c(F)c(F)c1F [Compound 559]
EC50 (CI-M6PR; Table 16E, conjugate, m average DAR 9, read-out: EC50 in M6PR binding assay for conjugates of monovalent compounds of varying linker length and loading): 3.36 nM

CO[C@H]1O[C@H](COCCCCCc2cn(CCOCCOCCOCCOCCC(=O)Oc3c(F)c(F)c(F)c(F)c3F)nn2)[C@@H](O)[C@H](O)[C@@H]1O[C@H]1O[C@H](CCP(=O)(O)O)[C@@H](O)[C@H](O)[C@@H]1O [Compound 659]
relative cellular uptake activity of IgE-Alexa488, omalizumab conjugates of Table 15B (Jurkat cells): potent and comparable activity to conjugate of a conjugate of compound 520 (I-7)

CO[C@H]1OC(c2cn(CCOCCOCCOCCOCCOCCOCCC(=O)Oc3c(F)c(F)c(F)c(F)c3F)nn2)[C@@H](O)[C@H](O)[C@@H]1O[C@H]1O[C@H](CCP(=O)(O)O)[C@@H](O)[C@H](O)[C@@H]1O (stereo partly drawn) [Compound 660]
relative cellular uptake activity of IgE-Alexa488, omalizumab conjugates of Table 15B (Jurkat cells): potent and comparable activity to conjugate of a conjugate of compound 520 (I-7)

O=C(CCOCCOCCOCCOCCOCCOCCOCCOCc1cn([C@H]2O[C@H](CCP(=O)(O)O)[C@@H](O)[C@H](O)[C@@H]2O)nn1)ON1C(=O)CCC1=O [Compound 664]
relative cellular uptake activity of IgE-Alexa488, omalizumab conjugates of Table 15B (Jurkat cells): minimal activity

O=C(NCCCCc1cn(CCOCCOCCOCCOCCC(=O)Oc2c(F)c(F)c(F)c(F)c2F)nn1)Nc1ccc(O[C@H]2C[C@H](CCP(=O)(O)O)[C@@H](O)[C@H](O)[C@@H]2O)cc1 [Compound 665]
relative cellular uptake activity of IgE-Alexa488, omalizumab conjugates of Table 15A (Jurkat cells): low activity

O=C(CCOCCOCCOCCN(CCOCCOCCOCCn1cc(CCO[C@H]2O[C@H](CCP(=O)(O)O)[C@@H](O)[C@H](O)[C@@H]2O)nn1)CCOCCOCCOCCn1cc(CCO[C@H]2O[C@H](CCP(=O)(O)O)[C@@H](O)[C@H](O)[C@@H]2O)nn1)Oc1c(F)c(F)c(F)c(F)c1F [Compound 716]
relative cellular uptake activity of IgE-Alexa488, omalizumab conjugates of Table 15A (Jurkat cells): inferior uptake to 520 (I-7) with m=8

CC(=O)N[C@@H](CCCCn1cc(CCCCNC(=O)Nc2ccc(O[C@H]3O[C@H](CCP(=O)(O)O)[C@@H](O)[C@H](O)[C@@H]3O)cc2)nn1)C(=O)N[C@@H](CCCCn1cc(CCCCNC(=O)Nc2ccc(O[C@H]3O[C@H](CCP(=O)(O)O)[C@@H](O)[C@H](O)[C@@H]3O)cc2)nn1)C(=O)NCCOCCOCCOCCOCCC(=O)O [Compound 769]
IC50 [1]: 100 to 500 nM

CC(=O)N[C@@H](CCCCn1cc(CCCCNC(=O)Nc2ccc(O[C@H]3O[C@H](CCP(=O)(O)O)[C@@H](O)[C@H](O)[C@@H]3O)cc2)nn1)C(=O)N[C@@H](CCCCn1cc(CCCCNC(=O)Nc2ccc(O[C@H]3O[C@H](CCP(=O)(O)O)[C@@H](O)[C@H](O)[C@@H]3O)cc2)nn1)C(=O)NCCOCCOCCOCCOCCC(=O)N[C@@H](CCCCn1cc(CCCCNC(=O)Nc2ccc(O[C@H]3O[C@H](CCP(=O)(O)O)[C@@H](O)[C@H](O)[C@@H]3O)cc2)nn1)C(=O)N[C@@H](CCCCn1cc(CCCCNC(=O)Nc2ccc(O[C@H]3O[C@H](CCP(=O)(O)O)[C@@H](O)[C@H](O)[C@@H]3O)cc2)nn1)C(=O)NCCOCCOCCOCCOCCC(=O)O [Compound 770]
IC50 [1]: ≤ 50 nM

CC(=O)N[C@@H](CCCCn1cc(CCCCNC(=O)Nc2ccc(O[C@H]3O[C@H](CCP(=O)(O)O)[C@@H](O)[C@H](O)[C@@H]3O)cc2)nn1)C(=O)NCCOCCOCCOCCOCCC(=O)O [Compound 771]
IC50 [1]: 100 to 500 nM

O=C(O)CCOCCOCCOCCOCCNC(=O)[C@H](CCCCn1cc(CCCCNC(=O)Nc2ccc(O[C@H]3O[C@H](CCP(=O)(O)O)[C@@H](O)[C@H](O)[C@@H]3O)cc2)nn1)NC(=O)[C@H](CCCCn1cc(CCCCNC(=O)Nc2ccc(O[C@H]3O[C@H](CCP(=O)(O)O)[C@@H](O)[C@H](O)[C@@H]3O)cc2)nn1)NC(=O)[C@H](CCCCn1cc(CCCCNC(=O)Nc2ccc(O[C@H]3O[C@H](CCP(=O)(O)O)[C@@H](O)[C@H](O)[C@@H]3O)cc2)nn1)NC(=O)CCCn1cc(CCCCNC(=O)Nc2ccc(O[C@H]3O[C@H](CCP(=O)(O)O)[C@@H](O)[C@H](O)[C@@H]3O)cc2)nn1 [Compound 772]
IC50 [1]: 50 to 100 nM

O=C(CCCn1cc(CCCCNC(=S)Nc2ccc(O[C@H]3O[C@H](CCP(=O)(O)O)[C@@H](O)[C@H](O)[C@@H]3O)cc2)nn1)N[C@@H](CCCCn1cc(CCCCNC(=S)Nc2ccc(O[C@H]3O[C@H](CCP(=O)(O)O)[C@@H](O)[C@H](O)[C@@H]3O)cc2)nn1)C(=O)N[C@@H](CCCCn1cc(CCCCNC(=S)Nc2ccc(O[C@H]3O[C@H](CCP(=O)(O)O)[C@@H](O)[C@H](O)[C@@H]3O)cc2)nn1)C(=O)N[C@@H](CCCCn1cc(CCCCNC(=S)Nc2ccc(O[C@H]3O[C@H](CCP(=O)(O)O)[C@@H](O)[C@H](O)[C@@H]3O)cc2)nn1)C(=O)NCCOCCOCCOCCOCCC(=O)Oc1c(F)c(F)c(F)c(F)c1F [Compound I-52]
EC50 (CI-M6PR; Table 16B, antibody conjugate, average loading DAR 6, read-out: EC50 in M6PR binding assay): 0.28 nM

C#CCCCC(=O)Nc1ccc2cc(O[C@H]3O[C@H](CCP(=O)(O)O)[C@@H](O)[C@H](O)[C@@H]3O)ccc2c1 [Compound I-68, (2-((2R,3S,4S,5S,6R)-6-((6-(hex-5-ynamido)naphthalen-2-yl)oxy)-3,4,5-trihydroxytetrahydro-2H-pyran-2-yl)ethyl)phosphonic acid]
IC50 [1]: 100 to 500 nM
